In patent US9605064B2, “Methods and compositions for treatment of skin disorders” (AbbVie Biotechnology Ltd, priority 2006, dated 2017):

Key:
[1] = tested on: patients with moderate to severe chronic plaque psoriasis; test: Adverse events, CHAMPION 16-week Phase III trial; details: 16-week study
Excerpt: (§2) The study was a multi-center, 16-week, randomized controlled Phase III trial. The main inclusion criteria included: • Clinical diagnosis of psoriasis for ≧1 year • Affected body surface area (BSA)≧10% • Psoriasis Area and Severity Index (PASI)≧10 The main exclusion criteria was previous use of MTX or systemic anti-TNF therapy.

[2] = tested on: patients with moderate to severe chronic plaque psoriasis; test: PGA, CHAMPION 16-week Phase III trial; type: in vivo, human; details: ITT, missing PGA = not achieving
Method: (§1) Analytical methods included the following: • Intention-to-treat analyses were performed for all randomized patients • Missing data were analyzed using non-responder imputation (NRI) • PASI 75 at Week 16 (primary endpoint) was analyzed using adjusted Cochran-Mantel-Haenszel test.

[3] = tested on: patients with moderate to severe chronic plaque psoriasis; test: PASI response, CHAMPION 16-week Phase III trial vs methotrexate and placebo; type: in vivo, human; details: ITT; for PASI 75 Response Rates, % Patients / PASI 90 Response Rates, % Patients: missing PASI = non-responder
Method: as §1

[4] = tested on: patients with moderate to severe chronic plaque psoriasis; details: human, in vivo, 16 weeks
Excerpt: as §2

[5] = tested on: patients with moderate to severe chronic plaque psoriasis; test: PASI response, open-label extension of CHAMPION (methotrexate to adalimumab transition); type: in vivo, human; details: prior to starting adalimumab, after 16 weeks of methotrexate in CHAMPION; 95 patients
[6] = MTX N = 110, Adalimumab N = 107

## CN(Cc1cnc2nc(N)nc(N)c2n1)c1ccc(C(=O)N[C@@H](CCC(=O)O)C(=O)O)cc1 [methotrexate, reference compound]
[1]; [6]
  Any AE: 89 (81) n (%)
  Any AE leading to discontinuation: 6 (6) n (%)
  Any SAE: 1 (1) n (%)
  Any infectious AE: 46 (42) n (%)
  Any infectious SAE: 0 (0) n (%)
[1]; common AE in ≧5% of patients
  Arthralgia: 5 (5) n (%)
  Gamma-Glutamyltransferase Increased: 0 (0) n (%)
  Headache: 12 (11) n (%)
  Nasopharyngitis: 26 (24) n (%)
  Nausea: 8 (7) n (%)
  Pruritus: 2 (2) n (%)
  Rhinitis: 4 (4) n (%)
  Rhinorrhea: 0 (0) n (%)
[2]; Week 4
  PGA “Clear” or “Minimal” Responses, % Patients: 1%
[2]; Week 8
  PGA “Clear” or “Minimal” Responses, % Patients: 3%
[2]; Week 12
  PGA “Clear” or “Minimal” Responses, % Patients: 9%
[2]; Week 16
  PGA “Clear” or “Minimal” Responses, % Patients: 14%
[3]; Week 4
  PASI 75 Response Rates, % Patients: 3%
  PASI 90 Response Rates, % Patients: 1%
[3]; Week 8
  PASI 75 Response Rates, % Patients: 9%
  PASI 90 Response Rates, % Patients: 3%
[3]; Week 12
  PASI 75 Response Rates, % Patients: 25%
  PASI 90 Response Rates, % Patients: 9%
[3]; Week 16, NRI
  PASI 75: 36%
[3]; Week 16
  PASI 75 Response Rates, % Patients: 36%
  PASI 90 Response Rates, % Patients: 14%
[3]; Week 16, listed as MTX
  PASI 75 Response Rates, % Patients: 35.5%
  PASI 90 Response Rates, % Patients: 13.6%
[3]; Week 16 of CHAMPION, NRI
  PASI 50 response rate: 61.8%
  PASI 100 response rate: 7.3%
[4]
  Viral Infection: 6 (6) n (%)
[5]
  PASI 75 response rate: 28%
  PASI 90 response rate: 14%
  PASI 100 response rate: 5%
